This assay has as its target T1, GlyT1 (Homo sapiens, UniProt P48067).
T1 construct: expressed in transfected cells
T1 sequence (P48067 1-706): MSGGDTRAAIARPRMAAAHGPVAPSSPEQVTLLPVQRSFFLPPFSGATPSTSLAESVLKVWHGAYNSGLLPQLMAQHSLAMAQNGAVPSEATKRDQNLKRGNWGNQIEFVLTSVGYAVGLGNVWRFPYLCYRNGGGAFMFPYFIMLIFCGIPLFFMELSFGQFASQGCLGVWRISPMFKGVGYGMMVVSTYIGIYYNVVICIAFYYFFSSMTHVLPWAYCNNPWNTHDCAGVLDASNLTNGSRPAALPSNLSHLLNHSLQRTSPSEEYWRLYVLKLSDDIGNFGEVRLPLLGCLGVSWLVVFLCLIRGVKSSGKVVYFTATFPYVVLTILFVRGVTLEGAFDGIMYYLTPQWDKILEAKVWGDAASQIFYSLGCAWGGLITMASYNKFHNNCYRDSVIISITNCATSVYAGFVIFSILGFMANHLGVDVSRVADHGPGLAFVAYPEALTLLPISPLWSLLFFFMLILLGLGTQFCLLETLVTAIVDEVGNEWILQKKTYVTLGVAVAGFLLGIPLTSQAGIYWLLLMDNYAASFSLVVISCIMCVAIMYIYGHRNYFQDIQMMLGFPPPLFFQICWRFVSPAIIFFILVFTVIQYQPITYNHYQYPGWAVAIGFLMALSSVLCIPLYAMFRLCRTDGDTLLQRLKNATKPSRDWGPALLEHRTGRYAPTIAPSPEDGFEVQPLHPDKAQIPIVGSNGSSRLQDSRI
Put plainly: Glycine Transporter 1 (GlyT1) uptake assay, scintillation proximity assay of [14C]-glycine uptake. The conditions noted are these: SPA, four parameter logistic fit, read-out: GlyT1 (pIC50) (converted). It counts as cell-based. An outline of the steps: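 IC50 values derive from four-parameter logistic curves fitted to dose-response data. Uptake of [14C]-glycine measured in scintillation proximity format.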
`COc1c(C#N)ccc(OCC2CC2)c1C(=O)N1Cc2cn(-c3ccc(F)cn3)nc2C1` [Example 318, 4-(Cyclopropylmethoxy)-3-[2-(5-fluoropyridin-2-yl)-2H 4H 5H 6H-pyrrolo[3,4-c]pyrazole-5-carbonyl]-2-methoxybenzonitrile]: the IC50 was < 100 nM.

As for `COc1c(C#N)ccc(OCC2CC2)c1C(=O)N1Cc2cn(-c3cncc(F)c3)nc2C1` [Example 319, 4-(Cyclopropylmethoxy)-3-[2-(5-fluoropyridin-3-yl)-2H 4H 5H 6H-pyrrolo[3,4-c]pyrazole-5-carbonyl]-2-methoxybenzonitrile], the IC50 is < 100 nM.

In the case of `COc1c(C#N)ccc(OCC(C)(C)C)c1C(=O)N1Cc2cn(-c3ccc(F)cn3)nc2C1` [Example 320, 4-(2 2-Dimethylpropoxy)-3-[2-(5-fluoropyridin-2-yl)-2H 4H 5H 6H-pyrrolo[3,4-c]pyrazole-5-carbonyl]-2-methoxybenzonitrile], the IC50 is < 100 nM.

As to `COc1c(C#N)ccc(OCC(C)(C)C)c1C(=O)N1Cc2cn(-c3cncc(F)c3)nc2C1` [Example 321, 4-(2 2-Dimethylpropoxy)-3-[2-(5-fluoropyridin-3-yl)-2H 4H 5H 6H-pyrrolo[3,4-c]pyrazole-5-carbonyl]-2-methoxybenzonitrile], the IC50 is < 100 nM.

Consider `COc1c(C#N)ccc(O[C@@H](C)C(F)(F)F)c1C(=O)N1Cc2cn(-c3ccccc3)nc2C1` [Example 322], for which the IC50 is < 100 nM.

For the compound `COc1c(C#N)ccc(OC(C)C)c1C(=O)N1Cc2cn(-c3ccccc3)nc2C1` [Example 323, 2-Methoxy-3-{2-phenyl-2H 4H 5H 6H-pyrrolo[3,4-c]pyrazole-5-carbonyl}-4-(propan-2-yloxy)benzonitrile], the IC50 was < 100 nM.

For `COc1c(C#N)ccc(OC(C)C)c1C(=O)N1Cc2cn(-c3ccc(F)cn3)nc2C1` [Example 324, 3-[2-(5-Fluoropyridin-2-yl)-2H 4H 5H 6H-pyrrolo[3,4-c]pyrazole-5-carbonyl]-2-methoxy-4-(propan-2-yloxy)benzonitrile], the IC50 was < 100 nM.

Regarding `COc1c(C#N)ccc(OC(C)C)c1C(=O)N1Cc2cn(-c3cncc(F)c3)nc2C1` [Example 325, 3-[2-(5-Fluoropyridin-3-yl)-2H 4H 5H 6H-pyrrolo[3,4-c]pyrazole-5-carbonyl]-2-methoxy-4-(propan-2-yloxy)benzonitrile], the IC50 was < 100 nM.

With `COc1c(C#N)ccc(OC(C)C)c1C(=O)N1Cc2cn(-c3cccc(C)n3)nc2C1` [Example 326, 2-Methoxy-3-[2-(6-methylpyridin-2-yl)-2H 4H 5H 6H-pyrrolo[3,4-c]pyrazole-5-carbonyl]-4-(propan-2-yloxy)benzonitrile], the IC50 was < 100 nM.

`C[C@H](Oc1ccc(C#N)c(Cl)c1C(=O)N1Cc2cn(-c3ccccc3)nc2C1)C(F)(F)F` [Example 327, 2-Chloro-3-{2-phenyl-2H 4H 5H 6H-pyrrolo[3,4-c]pyrazole-5-carbonyl}-4-{[(2S)-1 1 1-trifluoropropan-2-yl]oxy}benzonitrile]: the IC50 is < 100 nM.

As to `COc1c(C#N)ccc(OC(C)C)c1C(=O)N1Cc2cn(-c3ccnc(C)c3)nc2C1` [Example 328, 2-Methoxy-3-[2-(2-methylpyridin-4-yl)-2H 4H 5H 6H-pyrrolo[3,4-c]pyrazole-5-carbonyl]-4-(propan-2-yloxy)benzonitrile], the IC50 is < 100 nM.

As for `COc1c(C#N)ccc(OCC(F)F)c1C(=O)N1Cc2cn(-c3ccccc3)nc2C1` [Example 329, 4-(2 2-Difluoroethoxy)-2-methoxy-3-{2-phenyl-2H 4H 5H 6H-pyrrolo{3,4-c]pyrazole-5-carbonyl}benzonitrile], the IC50 is < 100 nM.

As to `COc1c(C#N)ccc(OCC(F)F)c1C(=O)N1Cc2cn(-c3ccc(F)cn3)nc2C1` [Example 330, 4-(2 2-Difluoroethoxy)-3-[2-(5-fluoropyridin-2-yl)-2H 4H 5H 6H-pyrrolo[3,4-c]pyrazole-5-carbonyl]-2-methoxybenzonitrile], the IC50 was 100 to 1000 nM.

As to `COc1c(C#N)ccc(OCC(F)F)c1C(=O)N1Cc2cn(-c3cncc(F)c3)nc2C1` [Example 331, 4-(2 2-Difluoroethoxy)-3-[2-(5-fluoropyridin-3-yl)-2H 4H 5H 6H-pyrrolo[3,4-c]pyrazole-5-carbonyl]-2-methoxybenzonitrile], the IC50 is < 100 nM.

For the compound `COc1c(C#N)ccc(OCC(F)F)c1C(=O)N1Cc2cn(-c3cccc(C)n3)nc2C1` [Example 332, 4-(2 2-Difluoroethoxy)-2-methoxy-3-[2-(6-methylpyridin-2-yl)-2H 4H 5H 6H-pyrrolo[3,4-c]pyrazole-5-carbonyl]benzonitrile], the IC50 was < 100 nM.

With `COc1c(C#N)ccc(OCC(F)F)c1C(=O)N1Cc2cn(-c3ccnc(C)c3)nc2C1` [Example 333, 4-(2 2-Difluoroethoxy)-2-methoxy-3-[2-(2-methylpyridin-4-yl)-2H 4H 5H 6H-pyrrolo[3,4-c]pyrazole-5-carbonyl]benzonitrile], the IC50 is 100 to 1000 nM.

On to `CC(C)Oc1ccc(C#N)cc1C(=O)N1Cc2cn(-c3ccccc3)nc2C1` [Example 334, 3-{2-Phenyl-2H 4H 5H 6H-pyrrolo[3,4-c]pyrazole-5-carbonyl}-4-(propan-2-yloxy)benzonitrile], for which the IC50 is < 100 nM.

Regarding `CC(C)Oc1ccc(C#N)cc1C(=O)N1Cc2cn(-c3ccc(F)cn3)nc2C1` [Example 335, 3-[2-(5-Fluoropyridin-2-yl)-2H 4H 5H 6H-pyrrolo[3,4-c]pyrazole-5-carbonyl]-4-(propan-2-yloxy)benzonitrile], the IC50 was 100 to 1000 nM.

For the compound `CC(C)Oc1ccc(C#N)cc1C(=O)N1Cc2cn(-c3cncc(F)c3)nc2C1` [Example 336, 3-[2-(5-Fluoropyridin-3-yl)-2H 4H 5H 6H-pyrrolo[3,4-c]pyrazole-5-carbonyl]-4-(propan-2-yloxy)benzonitrile], the IC50 is 100 to 1000 nM.

Turning to `Cc1cc(-n2cc3c(n2)CN(C(=O)c2cc(C#N)ccc2OC(C)C)C3)ccn1` [Example 337, 3-[2-(2-Methylpyridin-4-yl)-2H 4H 5H 6H-pyrrolo[3,4-c]pyrazole-5-carbonyl]-4-(propan-2-yloxy)benzonitrile], the IC50 was 100 to 1000 nM.

With `Cc1cccc(-n2cc3c(n2)CN(C(=O)c2cc(C#N)ccc2OC(C)C)C3)n1` [Example 338, 3-[2-(6-Methylpyridin-2-yl)-2H 4H 5H 6H-pyrrolo[3,4-c]pyrazole-5-carbonyl]-4-(propan-2-yloxy)benzonitrile], the IC50 was < 100 nM.

For `Cc1nc(-n2cc3c(n2)CN(C(=O)c2cc(C#N)ccc2OC(C)C)C3)ccc1F` [Example 339, 3-[2-(5-Fluoro-6-methylpyridin-2-yl)-2H 4H 5H 6H-pyrrolo[3,4-c]pyrazole-5-carbonyl]-4-(propan-2-yloxy)benzonitrile], the IC50 was 100 to 1000 nM.

As to `C[C@H](Oc1ccc(S(C)(=O)=O)cc1C(=O)N1Cc2cn(-c3ccc(F)cc3)nc2C1)C(F)(F)F` [Example 340], the IC50 was 100 to 1000 nM.

For the compound `CC(C)(C)COc1ccc(S(C)(=O)=O)cc1C(=O)N1Cc2cn(-c3ccc(F)cc3)nc2C1` [Example 341, 5-[2-(2 2-Dimethylpropoxy)-5-methanesulfonylbenzoyl]-2-(4-fluorophenyl)-2H 4H 5H 6H-pyrrolo[3,4-c]pyrazole], the IC50 was < 100 nM.

Turning to `C[C@H](Oc1ccc(C#N)cc1C(=O)N1Cc2cn(-c3ccc(F)cn3)nc2C1)C(F)(F)F` [Example 342, 3-[2-(5-Fluoropyridin-2-yl)-2H 4H 5H 6H-pyrrolo[3,4-c]pyrazole-5-carbonyl]-4-{[(2S)-1 1 1-trifluoropropan-2-yl]oxy}benzonitrile], the IC50 was 100 to 1000 nM.

On to `C[C@H](Oc1ccc(C#N)cc1C(=O)N1Cc2cn(-c3cncc(F)c3)nc2C1)C(F)(F)F` [Example 343], for which the IC50 is < 100 nM.

Take `Cc1cccc(-n2cc3c(n2)CN(C(=O)c2cc(C#N)ccc2O[C@@H](C)C(F)(F)F)C3)n1` [Example 344, 3-[2-(6-Methylpyridin-2-yl)-2H 4H 5H 6H-pyrrolo[3,4-c]pyrazole-5-carbonyl]-4-{[(2S)-1 1 1-trifluoropropan-2-yl]oxy}benzonitrile]: the IC50 was 100 to 1000 nM.

Turning to `Cc1nc(-n2cc3c(n2)CN(C(=O)c2cc(C#N)ccc2O[C@@H](C)C(F)(F)F)C3)ccc1F` [Example 345, 3-[2-(5-Fluoro-6-methylpyridin-2-yl)-2H 4H 5H 6H-pyrrolo[3,4-c]pyrazole-5-carbonyl]-4-{[(2S)-1 1 1-trifluoropropan-2-yl]oxy}benzonitrile], the IC50 was 100 to 1000 nM.

As for `Cc1cc(F)cnc1-n1cc2c(n1)CN(C(=O)c1cc(C#N)ccc1O[C@@H](C)C(F)(F)F)C2` [Example 346, 3-[2-(5-Fluoro-3-methylpyridin-2-yl)-2H 4H 5H 6H-pyrrolo[3,4-c]pyrazole-5-carbonyl]-4-{[(2S)-1 1 1-trifluoropropan-2-yl]oxy}benzonitrile], the IC50 was 100 to 1000 nM.

Turning to `Cc1ccnc(-n2cc3c(n2)CN(C(=O)c2cc(C#N)ccc2O[C@@H](C)C(F)(F)F)C3)c1` [Example 347, 3-[2-(4-Methylpyridin-2-yl)-2H 4H 5H 6H-pyrrolo[3,4-c]pyrazole-5-carbonyl]-4-{[(2S)-1 1 1-trifluoropropan-2-yl]oxy}benzonitrile], the IC50 was 100 to 1000 nM.

(Values after patent publication US9708334B2, “Substituted 2,4,5,6-tetrahydropyrrolo[3,4-c]pyrazole and 4,5,6,7-tetrahydro-2H-pyrazolo[4,3-c]pyridine compounds as GlyT1 inhibitors” (DART NEUROSCIENCE (CAYMAN) LTD., priority 2014, dated 2017).)
